Experimental data reported in ChEMBL document CHEMBL1125817, “Synthesis and evaluation of a series of 3,5-disubstituted benzisoxazole-4,7-diones. Potent radiosensitizers in vitro” (1991).

What was measured:
Cricetulus griseus [1] = species: Cricetulus griseus; assay: Concentration of the highest non-toxic dose tested; assay type: functional
[2] = Sensitizer enhancement ratio was determined from the ratio of the doses required to reduce cell survival to 25% of the control value obtained from hypoxic survival curves in the presence and absence of test compound; assay type: functional, Cricetulus griseus
Cricetulus griseus [3] = species: Cricetulus griseus; assay: Sensitizer enhancement ratio was determined from the ratio of the doses required to reduce cell survival to 25% of the control value obtained from hypoxic survival curves in the presence and absence of test compound; c = Compound was too insoluble to test; assay type: functional
Cricetulus griseus [4] = species: Cricetulus griseus; assay: Concentration of the highest non-toxic dose tested; c = Compound was too insoluble to test; assay type: functional

Compound | Concentration (Cricetulus griseus [1]) [mM] | Ratio [2] | Ratio (Cricetulus griseus [3]) | Concentration (Cricetulus griseus [4])
O=C1/C(=N\c2ccccc2)C=C(O)c2noc(N(CCO)CCO)c21 | 1.5 | 2.1 |  | 
O=C1C=C(Nc2ccc(Cl)cc2)C(=O)c2c1noc2NCCN1CCCCC1 | 0.19 | 1.9 |  | 
CCOc1onc2c1C(=O)/C(=N\c1ccc(Cl)cc1)C=C2O |  |  | Too insoluble | Too insoluble
CN(C)CCCNc1onc2c1C(=O)/C(=N\c1ccc(F)cc1)C=C2O | 0.38 | 1.4 |  | 
CN(C)CCN(C)c1onc2c1C(=O)/C(=N\c1ccccc1)C=C2O | 0.38 | 2 |  | 
CN(C)CCCNc1onc2c1C(=O)/C(=N\c1ccccc1)C=C2O | 0.19 | 1.7 |  | 
O=C1C=C(Nc2ccccc2)C(=O)c2c1noc2-c1ccccc1 |  |  | Too insoluble | Too insoluble
CCN(CC)c1onc2c1C(=O)/C(=N\c1ccccc1)C=C2O |  |  | Too insoluble | Too insoluble
CCOc1onc2c1C(=O)/C(=N\c1ccc(C)cc1)C=C2O |  |  | Too insoluble | Too insoluble
O=C1C=C(Nc2ccccc2)C(=O)c2c1noc2NCCN1CCCCC1 | 0.38 | 2.4 |  | 
CCOc1onc2c1C(=O)/C(=N\c1ccccc1)C=C2O | 0.03 | 1.3 |  | 
CCNc1onc2c1C(=O)/C(=N\c1ccccc1)C=C2O |  |  | Too insoluble | Too insoluble
CN(C)CCCNc1onc2c1C(=O)/C(=N\c1ccc(Cl)cc1)C=C2O | 0.13 | 1.7 |  | 
CN(C)CCNc1onc2c1C(=O)/C(=N\c1ccccc1)C=C2O | 0.19 | 1.5 |  | 
O=C1C=C(Nc2ccc(C(F)(F)F)cc2)C(=O)c2c1noc2NCCN1CCCCC1 | 0.13 | 1.6 |  | 
CCOc1onc2c1C(=O)/C(=N\c1ccc(C(F)(F)F)cc1)C=C2O |  |  | Too insoluble | Too insoluble
CCOc1onc2c1C(=O)/C(=N\c1ccc(F)cc1)C=C2O |  |  | Too insoluble | Too insoluble
CN(C)CCCN(C)c1onc2c1C(=O)/C(=N\c1ccccc1)C=C2O | 0.38 | 1.5 |  | 
Cc1onc2c1C(=O)/C(=N\c1ccccc1)C=C2O |  |  | Too insoluble | Too insoluble
CN(C)CCCNc1onc2c1C(=O)/C(=N\c1ccc(C(F)(F)F)cc1)C=C2O | 0.09 | 1.3 |  | 
O=C1C=C(Nc2ccc(F)cc2)C(=O)c2c1noc2NCCN1CCCCC1 | 0.29 | 1.6 |  | 
Cc1ccc(/N=C2/C=C(O)c3noc(NCCN(C)C)c3C2=O)cc1 | 0.05 | 1.2 |  | 
